Results: US7199131B2, “Sulfonamide and sulfamide substituted imidazoquinolines” (3M Innovative Properties Company, priority 2001, dated 2007)
Structures can show the parent of a compound that is named as a salt.

Tests used:
[1] = test system: tumor necrosis factor (α); test: Cytokine Induction in Human Cells: tumor necrosis factor (α) secreted by PBMCs, ELISA; type: cell-based; conditions: incubated 18 to 24 hours, lowest concentration found to induce tumor necrosis factor; for Lowest Effective Concentration (μM) Tumor Necrosis Factor: Hydrochloride
Excerpt: (§1) An in vitro human blood cell system was used to assess cytokine induction by compounds of the invention. Activity is based on the measurement of interferon and tumor necrosis factor (α) (IFN and TNF, respectively) secreted into culture media as described by Testerman et. al. In “Cytokine Induction by the Immunomodulators Imiquimod and S-27609”, Journal of Leukocyte Biology, 58, 365–372 (September, 1995).
(§2) Whole blood is collected by venipuncture into EDTA vacutainer tubes from healthy human donors. Peripheral blood mononuclear cells (PBMCs) are separated from whole blood by density gradient centrifugation using Histopaque®-1077 (Sigma Chemicals, St. Louis, Mo.). The PBMCs are suspended at 3–4×10^6 cells/mL in RPMI 1640 medium containing 10% fetal bovine serum, 2 mM L-glutamine and 1% penicillin/streptomycin solution (RPMI complete). The PBMC suspension is added to 48 well flat bottom sterile tissue culture plates (Costar, Cambridge, Mass. or Becton Dickinson Labware, Lincoln Park, N.J.) containing an equal volume of RPMI complete media containing test compound.
(§3) The compounds are solubilized in dimethyl sulfoxide (DMSO). The DMSO concentration should not exceed a final concentration of 1% for addition to the culture wells.
(§4) The solution of test compound is added at 60 μM to the first well containing RPMI complete and serial (three fold or ten fold) dilutions are made. The PBMC suspension is then added to the wells in an equal volume, bringing the test compound concentrations to the desired range. The final concentration of PBMC suspension is 1.5–2×10^6 cells/mL. The plates are covered with sterile plastic lids, mixed gently and then incubated for 18 to 24 hours at 37° C. in a 5% carbon dioxide atmosphere.
(§5) Following incubation the plates are centrifuged for 5–10 minutes at 1000 rpm (˜200×g) at 4° C. The cell culture supernatant is removed with a sterile polypropylene pipette and transferred to sterile polypropylene tubes. Samples are maintained at −30 to −70° C. until analysis. The samples are analyzed for interferon (α) and tumor necrosis factor (α) by ELISA
Tumor necrosis factor (α) (TNF) concentration is determined using ELISA kits available from Genzyme, Cambridge, Mass.; R&D Systems, Minneapolis, Minn.; or Pharmingen, San Diego, Calif.
(§6) The table below lists the lowest concentration found to induce interferon and the lowest concentration found to induce tumor necrosis factor for each compound.

interferon (α) = test: Cytokine Induction in Human Cells: interferon (α) secreted by PBMCs, ELISA; type: cell-based; conditions: incubated 18 to 24 hours, lowest concentration found to induce interferon
Excerpt: as §1, §2, §3, §4, §5
Interferon (α) concentration is determined by ELISA using a Human Multi-Species kit from PBL Biomedical Laboratories, New Brunswick, N.J.
as §6

Row | Structure (SMILES) | melting point | also measured
1 | CS(=O)(=O)NCCCCn1c(CC2CC2)nc2c(N)nc3ccccc3c21 [Example 270, N-{4-[4-amino-2-(cyclopropylmethyl)-1H-imidazo[4,5-c]quinolin-1-yl]butyl}methanesulfonamide] | 199.7 to 200.7 °C | 
2 | CCCCc1nc2c(N)nc3ccccc3c2n1CCCCNS(=O)(=O)c1cccc([N+](=O)[O-])c1 [Example 7, N^1-[4-(4-Amino-2-butyl-1H-imidazo[4,5-c]quinolin-1-yl)butyl]-3-nitro-1-benzenesulfonamide Hydrochloride] |  | Lowest Effective Concentration (μM) Tumor Necrosis Factor [1]: ** (no induction was seen at any of the tested concentrations (0.12, 0.37, 1.11, 3.33, 10 and 30 μM)); minimal effective concentration (interferon (α); Hydrochloride): 0.01 µM
3 | CCCCc1nc2c(N)nc3ccccc3c2n1CCCCNS(=O)(=O)c1ccccc1 [Example 5, N^1-[4-(4-Amino-2-butyl-1H-imidazo[4,5-c]quinolin-1-yl)butyl]-1-benzenesulfonamide] | 75.5 to 79 °C | 
4 | CCCCc1nc2c(N)nc3ccccc3c2n1CCCCNS(=O)(=O)c1cccc([N+](=O)[O-])c1 (as salt: hydrochloride) [Example 7, N^1-[4-(4-Amino-2-butyl-1H-imidazo[4,5-c]quinolin-1-yl)butyl]-3-nitro-1-benzenesulfonamide Hydrochloride] | 176 to 178.2 °C | 
5 | CCCCc1nc2c(N)nc3ccccc3c2n1CCCCNS(=O)(=O)c1cccs1 [Example 3, N^2-[4-(4-Amino-2-butyl-1H-imidazo[4,5-c]quinolin-1-yl)butyl]-2-thiophenesulfonamide] | 137.5 to 141.5 °C | 
6 | COCCc1nc2c(N)nc3c(c2n1CCCCNS(C)(=O)=O)CCCC3 [Example 214, N-[4-(4-Amino-6,7,8,9-tetrahydro-2-(2-methoxyethyl)-1H-imidazo[4,5-c]quinolin-1-yl)butyl]methanesulfonamide Trifluoroacetate] |  | minimal effective concentration [1]: 10 µM; minimal effective concentration (interferon (α)): 0.01 µM
7 | CCCCc1nc2c(N)nc3ccccc3c2n1CCNS(=O)(=O)C(F)(F)F [Example 35, N-[2-(4-Amino-2-butyl-1H-imidazo[4,5-c]quinolin-1-yl)ethyl]trifluoromethanesulfonamide Trifluoroacetate] |  | minimal effective concentration [1]: 10 µM; minimal effective concentration (interferon (α)): 1.11 µM
8 | Cc1nc2c(N)nc3c(c2n1CCCCNS(C)(=O)=O)CCCC3 (as salt: hydrochloride) [Example 263, N-[4-(4-amino-2-methyl-6,7,8,9-tetrahydro-1H-imidazo[4,5-c]quinolin-1-yl)butyl]methanesulfonamide hydrochloride] | > 250 °C | 
9 | CCCCc1nc2c(N)nc3ccccc3c2n1CCCCNS(=O)(=O)c1cccc2c(N(C)C)cccc12 [Example 1, N^1-[4-(4-Amino-2-butyl-1H-imidazo[4,5-c]quinolin-1-yl)butyl]-5-(dimethylamino)-1-naphthalenesulfonamide] | 223 to 224 °C | 
10 | CCCCc1nc2c(N)nc3ccccc3c2n1CCCCNS(=O)(=O)c1ccc([N+](=O)[O-])cc1 [Example 9, N^1-[4-(4-Amino-2-butyl-1H-imidazo[4,5-c]quinolin-1-yl)butyl]-4-nitro-1-benzenesulfonamide Hydrochloride] |  | Lowest Effective Concentration (μM) Tumor Necrosis Factor [1]: ** (no induction was seen at any of the tested concentrations (0.12, 0.37, 1.11, 3.33, 10 and 30 μM)); minimal effective concentration (interferon (α); Hydrochloride): 0.04 µM
11 | CCS(=O)(=O)NCCCCn1c(C)nc2c(N)nc3ccccc3c21 [Example 269, N-[4-(4-amino-2-methyl-1H-imidazo[4,5-c]quinolin-1-yl)butyl]ethanesulfonamide] | 210.7 to 211.6 °C | 
12 | CCCCCc1nc2c(N)nc3ccccc3c2n1CCCCNS(C)(=O)=O [Example 250, N-[4-(4-amino-2-pentyl-1H-imidazo[4,5-c]quinolin-1-yl)butyl]methanesulfonamide] |  | minimal effective concentration ([1]; PBMC): 0.12 µM; minimal effective concentration (interferon (α); PBMC): 0.01 µM
13 | CCCCc1nc2c(N)nc3ccccc3c2n1CCCCNS(=O)(=O)c1cccc2cnccc12 [Example 11, N^5-[4-(4-Amino-2-butyl-1H-imidazo[4,5-c]quinolin-1-yl)butyl]-5-isoquinolinesulfonamide] | 96 °C (dec.) | 
14 | Nc1nc2ccccc2c2c1nc(-c1ccccc1)n2CCCCNS(=O)(=O)c1ccc(F)cc1 [Example 15, N-[4-(4-Amino-2-phenyl-1H-imidazo[4,5-c]quinolin-1-yl)butyl]-4-fluoro-1-benzenesulfonamide] | 214 to 216 °C | 
15 | CCCCc1nc2c(N)nc3ccccc3c2n1CCNS(C)(=O)=O [Example 34, N-[2-(4-Amino-2-butyl-1H-imidazo[4,5-c]quinolin-1-yl)ethyl]methanesulfonamide Trifluoroacetate] |  | minimal effective concentration [1]: 0.37 µM; minimal effective concentration (interferon (α)): 0.04 µM
16 | CCCCc1nc2c(N)nc3ccccc3c2n1CCCCNS(=O)(=O)c1ccc(N)cc1 (as salt: hydrochloride) [Example 10, N^1-[4-(4-Amino-2-butyl-1H-imidazo[4,5-c]quinolin-1-yl)butyl]-4-amino-1-benzenesulfonamide Hydrochloride] | 203.1 to 205 °C | 
17 | CS(=O)(=O)NCCCCn1c(-c2ccccc2)nc2c(N)nc3ccccc3c21 [Example 16, N-[4-(4-Amino-2-phenyl-1H-imidazo[4,5-c]quinolin-1-yl)butyl]methanesulfonamide] | 234 to 235 °C | 
18 | CCCCc1nc2c(N)nc3ccccc3c2n1CCCCNS(=O)(=O)C[C@@]12CC[C@@H](CC1=O)C2(C)C [Example 89] |  | minimal effective concentration ([1]; PBMC): 1 µM; minimal effective concentration (interferon (α); PBMC): 0.001 µM
19 | CCc1nc2c(N)nc3ccccc3c2n1CCCCNS(C)(=O)=O [Example 236, N-[4-(4-amino-2-ethyl-1H-imidazo[4,5-c]quinolin-1-yl)butyl]methanesulfonamide] |  | minimal effective concentration ([1]; PBMC): 0.12 µM; minimal effective concentration (interferon (α); PBMC): 0.01 µM
20 | CCCCc1nc2c(N)nc3ccccc3c2n1CCCCNS(=O)(=O)c1cccc(N)c1 (as salt: hydrochloride) | 110.2 °C (dec.) | 
21 | CCCCc1nc2c(N)nc3ccccc3c2n1CCCCNS(=O)(=O)Cc1ccccc1 [Example 4, N-[4-(4-Amino-2-butyl-1H-imidazo[4,5-c]quinolin-1-yl)butyl]phenylmethanesulfonamide] | 197 to 199.5 °C | 
22 | COCCc1nc2c(N)nc3c(c2n1CCCCNS(=O)(=O)c1ccc(F)cc1)CCCC3 [Example 14, N^1-{4-[4-Amino-2-(2-methoxyethyl)-6,7,8,9-tetrahydro-1H-imidazo[4,5-c]quinolin-1-yl]butyl}-4-fluoro-1-benzenesulfonamide] | 191 to 193 °C | 
23 | CCCCc1nc2c(N)nc3ccccc3c2n1CCCCNS(=O)(=O)c1ccc([N+](=O)[O-])cc1 (as salt: hydrochloride) [Example 9, N^1-[4-(4-Amino-2-butyl-1H-imidazo[4,5-c]quinolin-1-yl)butyl]-4-nitro-1-benzenesulfonamide Hydrochloride] | 96 °C (dec.) | 
24 | COc1ccc(Cc2nc3c(N)nc4ccccc4c3n2CCCCNS(C)(=O)=O)cc1 [Example 12, N-[4-(4-Amino-2-(4-methoxybenzyl)-1H-imidazo[4,5-c]quinolin-1-yl]butyl]methanesulfonamide] | 78.1 to 79.5 °C | 
25 | COCCc1nc2c(N)nc3ccccc3c2n1CCCCN1CCCS1(=O)=O [Example 266, 1-[4-(1,1-dioxidoisothiazolidin-2-yl)butyl]-2-(2-methoxyethyl)-1H-imidazo[4,5-c]quinolin-4-amine] | 156.4 to 157.7 °C | 
